T1: Invertase (yeast) (Saccharomyces cerevisiae, UniProt P00724)
T1 sequence (P00724 20-532): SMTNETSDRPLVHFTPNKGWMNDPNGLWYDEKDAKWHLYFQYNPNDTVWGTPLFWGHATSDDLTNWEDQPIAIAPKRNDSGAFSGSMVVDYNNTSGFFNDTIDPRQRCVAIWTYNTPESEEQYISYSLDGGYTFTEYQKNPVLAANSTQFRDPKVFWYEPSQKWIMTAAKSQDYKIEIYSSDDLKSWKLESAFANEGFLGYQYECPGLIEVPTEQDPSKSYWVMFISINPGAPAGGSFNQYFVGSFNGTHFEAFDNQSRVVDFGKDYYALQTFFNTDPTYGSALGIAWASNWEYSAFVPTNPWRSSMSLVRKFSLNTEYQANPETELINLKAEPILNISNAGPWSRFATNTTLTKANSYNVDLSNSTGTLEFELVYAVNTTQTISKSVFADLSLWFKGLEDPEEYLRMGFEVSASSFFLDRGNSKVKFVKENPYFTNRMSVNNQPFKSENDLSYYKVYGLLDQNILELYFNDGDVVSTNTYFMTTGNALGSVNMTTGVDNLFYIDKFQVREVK

B1: Pisum sativum agglutinin (protein)
chain: TETTSFLITKFSPDQQNLIFQGDGYTTKEKLTLTKAVKNTVGRALYSSPIHIWDRETGNVANFVTSFTFVINAPNSYNVADGFTFFIAPVDTKPQTGGGYLGVFNSAEYDKTTQTVAVEFDTFYNAAWDPSNRDRHIGIDVNSIKSVNTKSWKLQNGEEANVVIAFNAATNVLTVSLTYPNSLEEENVTSYTLSDVVSLKDVVPEWVRIGFSATTGAEYAAHEVLSWSFHSELSGTSSSKQAADA

Legend:
glycoproteins = assay: hemagglutinating inhibition test with glycoproteins (sugar binding specificity); assay type: cell-based
Excerpt: The sugar binding specificity of lectin also can be confirmed by using erythrocytes that can be specifically agglutinated by the lectin to investigate the sugar type that may inhibit the agglutination of the erythrocytes and the concentration thereof.
Various monosaccharides, oligosaccharides, and polysaccharides shown in Table 2 and glycoproteins shown in Table 3 were subjected to hemagglutinating inhibition test to evaluate PTL of Example 1 and the SRL of Example 2 with regard to the sugar binding specificity.
On a 96 well U-bottom microtiter plate, double dilution series of 10 μl of monosaccharide, oligosaccharide, polysaccharide, and glycoprotein solutions were prepared. Then, lectin solution adjusted in advance to have titer 4 was added in an amount of 10 μl to the respective wells. Then, the plate was subjected to a still-standing at a room temperature for one hour for sensitization. Then, 10 μl of 4%-red blood cell suspension was added to the respective wells and the plate was further subjected to a still-standing at a room temperature for one hour. […] The lowest concentration showing the inhibition was assumed as the minimum inhibition concentration. The lower the minimum inhibition concentration is, the higher the specificity to lectin is.
For comparison, the sugar binding specificity was evaluated using the following commercially-available lectins: Comparison Example 1: AAL (SEIKAGAKU BIOBUSINESS CORPORATION—J-OIL MILLS, Inc.), Comparison Example 2: AOL (TOKYO CHEMICAL INDUSTRY CO., LTD.—Gekkeikan Sake Company, Ltd.), Comparison Example 3: LCA (SEIKAGAKU BIOBUSINESS CORPORATION—J-OIL MILLS, Inc.), and Comparison Example 4: PSA (SEIKAGAKU BIOBUSINESS CORPORATION—J-OIL MILLS, Inc.).

Transferrin (human) = Transferrin (human) (Homo sapiens, UniProt P02787); assay: detection of glycoproteins by ELISA with biotin-labeled lectin; assay type: binding; conditions: (4) Transferrin (human), N-linked glycan not including α1→6 L-fucose; thyroglobulin value = 100%
Protocol: (§1) PTL of Example 1, SRL of Example 2, AAL of Comparison Example 1, AOL of Comparison Example 2, and LCA of Comparison Example 3 that were biotin-labeled were used to the detection of glycoproteins by the enzyme-linked immunosorbent assay (ELISA).
(§2) The glycoprotein and albumin as protein not including a sugar chain as a control were dissolved in 0.1 M carbonic acid buffer solution (pH 9.5) at 1 mg/ml. Then, the resultant solution was added to a microtiter plate (Nunc 439454) and was incubated at 4 degrees C. overnight. Then, the resultant solution was cleaned by 0.05% Tween/PBS three times. Thereafter, 1% BSA/PBS was added to wells and the solution was incubated at 37 degrees C. for one hour. Then, after the solution was cleaned by 0.05% Tween/PBS three times, biotin labeled-lectin appropriately diluted by 1% BSA/0.05% Tween/PBS was added to the wells and the solution was incubated at 37 degrees C. for one hour. After the solution was cleaned by 0.05% Tween/PBS three times, HRP labeled streptavidin solution diluted by 1% BSA/0.05% Tween/PBS was added to wells and the solution was incubated at 37 degrees C. for 30 minutes. After the solution was cleaned by 0.05% Tween/PBS three times, TMB Peroxidase substrate system (KPL) was added and the resultant solution was incubated at a room temperature for 10 minutes while light was being blocked.
(§3) The reaction was stopped by 1 M phosphoric acid. Then, a microplate reader (MPR-A4i, TOSOH CORPORATION) was used to measure the absorbance at 450 nm. Based on this value, reaction value ([absorbance at 450 nm of a well for which glycoprotein was solid-phased to the plate and reacted]−[absorbance at 450 nm of a well for which glycoprotein was not solid-phased to the plate and reacted] was calculated. Next, for each lectin, the interaction strength (relative value) to each glycoprotein was calculated based on an assumption that the glycoprotein (thyroglobulin) value was 100%. The calculation result is shown in Table 9 and FIG. 19 to FIG. 23.

[1] = tested on: α1-acidic glycoprotein (human); assay: as above; assay type: binding; conditions: (5) α1-acidic glycoprotein (human), N-linked glycan having α1→3 L-fucose; thyroglobulin value = 100%
Protocol: as §1, §2, §3

Mucin (pig) = assay: as above; assay type: binding; conditions: (7) Mucin (pig), O-linked glycan including L-fucose; thyroglobulin value = 100%
Protocol: as §1, §2, §3

Thyroglobulin (pig) = Thyroglobulin (pig) (Sus scrofa, UniProt F1RRV3); assay: as above; assay type: binding; conditions: (1) Thyroglobulin (pig), N-linked glycan having α1→6 L-fucose; thyroglobulin value = 100%
Protocol: as §1, §2, §3

Invertase (yeast) = target: T1, Invertase (yeast); assay: as above; assay type: binding; conditions: (6) Invertase (yeast), High mannose-type glycan; thyroglobulin value = 100%
Protocol: as §1, §2, §3

[2] = tested on: Immune-globulin G (human); assay: as above; assay type: binding; conditions: (3) Immune-globulin G (human), N-linked glycan having α1→6 L-fucose; thyroglobulin value = 100%
Protocol: as §1, §2, §3

Mucin (bovine) = assay: as above; assay type: binding; conditions: (8) Mucin (bovine), O-linked glycan including L-fucose; thyroglobulin value = 100%
Protocol: as §1, §2, §3

[3] = target: Blood serum albumin (bovine) (Bos taurus, UniProt P02769); assay: as above; assay type: binding; conditions: (0) Blood serum albumin (bovine), No sugar chain; thyroglobulin value = 100%
Protocol: as §1, §2, §3

[4] = inhibitor: Bovine blood serum albumin
[5] = inhibitor: Human immune globulin A
[6] = inhibitor: Human immune globulin G
[7] = inhibitor: α1-acidic glycoprotein

Chain of Blood serum albumin (bovine) (P02769 25-607): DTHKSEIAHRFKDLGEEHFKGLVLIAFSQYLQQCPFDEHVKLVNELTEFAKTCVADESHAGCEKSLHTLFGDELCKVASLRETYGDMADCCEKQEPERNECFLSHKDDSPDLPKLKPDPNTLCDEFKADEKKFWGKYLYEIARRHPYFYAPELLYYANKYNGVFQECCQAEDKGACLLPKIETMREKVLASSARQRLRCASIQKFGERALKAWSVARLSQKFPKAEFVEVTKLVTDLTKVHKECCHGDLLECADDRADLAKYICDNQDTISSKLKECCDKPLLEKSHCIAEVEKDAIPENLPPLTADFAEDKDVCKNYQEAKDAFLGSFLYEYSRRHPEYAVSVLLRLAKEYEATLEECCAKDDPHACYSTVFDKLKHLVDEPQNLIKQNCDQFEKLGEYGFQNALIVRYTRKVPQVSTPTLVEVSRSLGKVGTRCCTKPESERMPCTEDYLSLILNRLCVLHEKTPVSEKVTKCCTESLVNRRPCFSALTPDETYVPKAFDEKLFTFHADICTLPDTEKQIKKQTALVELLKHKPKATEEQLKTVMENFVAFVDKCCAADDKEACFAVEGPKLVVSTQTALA
Chain of Thyroglobulin (pig) (F1RRV3 20-2692): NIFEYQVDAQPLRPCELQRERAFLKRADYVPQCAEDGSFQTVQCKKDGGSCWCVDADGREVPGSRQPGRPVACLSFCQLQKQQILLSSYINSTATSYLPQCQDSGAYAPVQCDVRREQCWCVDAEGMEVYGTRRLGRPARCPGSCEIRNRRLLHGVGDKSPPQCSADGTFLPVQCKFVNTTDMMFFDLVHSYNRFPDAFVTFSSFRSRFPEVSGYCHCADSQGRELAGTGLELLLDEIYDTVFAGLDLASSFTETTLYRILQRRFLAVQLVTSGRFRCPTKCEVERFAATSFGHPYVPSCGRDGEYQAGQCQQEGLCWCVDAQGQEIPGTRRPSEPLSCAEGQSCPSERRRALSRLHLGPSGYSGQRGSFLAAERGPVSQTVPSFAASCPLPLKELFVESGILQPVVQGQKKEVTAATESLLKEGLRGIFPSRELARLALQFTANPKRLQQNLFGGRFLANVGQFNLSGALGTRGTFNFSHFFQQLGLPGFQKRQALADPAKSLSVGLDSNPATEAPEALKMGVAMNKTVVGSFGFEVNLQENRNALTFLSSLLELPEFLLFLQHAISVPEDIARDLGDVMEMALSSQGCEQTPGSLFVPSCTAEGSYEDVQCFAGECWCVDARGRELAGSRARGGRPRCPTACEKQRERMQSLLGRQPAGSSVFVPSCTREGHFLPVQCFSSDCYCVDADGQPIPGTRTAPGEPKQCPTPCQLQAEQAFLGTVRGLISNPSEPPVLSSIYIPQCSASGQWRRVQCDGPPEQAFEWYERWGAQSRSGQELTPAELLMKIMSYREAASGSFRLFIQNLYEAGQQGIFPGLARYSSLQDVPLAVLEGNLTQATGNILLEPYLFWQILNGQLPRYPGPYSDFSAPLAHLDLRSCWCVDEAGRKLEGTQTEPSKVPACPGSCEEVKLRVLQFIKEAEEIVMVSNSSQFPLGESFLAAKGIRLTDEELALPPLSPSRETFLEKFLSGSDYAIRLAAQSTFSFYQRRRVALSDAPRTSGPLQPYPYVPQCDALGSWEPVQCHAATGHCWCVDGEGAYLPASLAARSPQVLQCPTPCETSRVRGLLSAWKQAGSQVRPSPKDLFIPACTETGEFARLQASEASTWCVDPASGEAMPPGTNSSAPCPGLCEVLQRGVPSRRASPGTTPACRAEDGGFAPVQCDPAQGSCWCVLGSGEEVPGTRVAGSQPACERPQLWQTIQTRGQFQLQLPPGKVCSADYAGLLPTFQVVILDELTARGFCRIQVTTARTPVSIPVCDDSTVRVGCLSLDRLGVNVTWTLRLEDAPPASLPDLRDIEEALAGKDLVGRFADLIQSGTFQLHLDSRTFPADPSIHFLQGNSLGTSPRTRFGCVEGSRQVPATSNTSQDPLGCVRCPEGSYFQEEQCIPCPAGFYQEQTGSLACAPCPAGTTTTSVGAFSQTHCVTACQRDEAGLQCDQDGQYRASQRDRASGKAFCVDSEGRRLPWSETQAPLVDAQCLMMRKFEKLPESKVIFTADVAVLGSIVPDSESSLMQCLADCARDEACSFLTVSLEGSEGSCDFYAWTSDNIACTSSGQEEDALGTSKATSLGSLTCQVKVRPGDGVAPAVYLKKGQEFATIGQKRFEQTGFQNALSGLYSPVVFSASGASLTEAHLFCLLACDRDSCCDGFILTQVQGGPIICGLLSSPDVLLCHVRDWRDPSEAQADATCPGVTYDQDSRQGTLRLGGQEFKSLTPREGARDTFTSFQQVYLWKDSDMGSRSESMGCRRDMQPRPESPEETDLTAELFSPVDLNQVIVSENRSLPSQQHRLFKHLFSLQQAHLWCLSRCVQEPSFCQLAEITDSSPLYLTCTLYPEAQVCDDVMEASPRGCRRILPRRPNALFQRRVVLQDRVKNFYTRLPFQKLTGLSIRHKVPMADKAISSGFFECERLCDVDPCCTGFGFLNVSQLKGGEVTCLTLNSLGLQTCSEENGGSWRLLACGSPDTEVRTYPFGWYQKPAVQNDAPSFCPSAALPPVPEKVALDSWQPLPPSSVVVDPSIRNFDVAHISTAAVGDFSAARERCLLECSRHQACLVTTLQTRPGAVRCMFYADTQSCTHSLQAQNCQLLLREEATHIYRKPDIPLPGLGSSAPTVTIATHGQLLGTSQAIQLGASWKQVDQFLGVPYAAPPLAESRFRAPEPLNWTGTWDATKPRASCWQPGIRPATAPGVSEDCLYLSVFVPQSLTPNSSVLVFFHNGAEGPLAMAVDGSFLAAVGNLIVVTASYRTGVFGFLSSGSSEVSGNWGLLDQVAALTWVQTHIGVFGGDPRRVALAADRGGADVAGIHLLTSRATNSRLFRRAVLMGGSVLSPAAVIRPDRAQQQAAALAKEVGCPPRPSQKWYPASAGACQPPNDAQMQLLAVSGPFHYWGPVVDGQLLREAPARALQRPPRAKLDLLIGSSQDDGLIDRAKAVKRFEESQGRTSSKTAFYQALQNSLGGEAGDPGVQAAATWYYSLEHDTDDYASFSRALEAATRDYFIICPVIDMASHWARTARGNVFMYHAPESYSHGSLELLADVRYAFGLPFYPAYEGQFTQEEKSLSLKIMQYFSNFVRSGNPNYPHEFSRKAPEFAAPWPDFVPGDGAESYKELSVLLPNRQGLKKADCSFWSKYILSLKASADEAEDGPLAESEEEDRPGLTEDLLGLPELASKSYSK
Chain of Transferrin (human) (P02787 20-698): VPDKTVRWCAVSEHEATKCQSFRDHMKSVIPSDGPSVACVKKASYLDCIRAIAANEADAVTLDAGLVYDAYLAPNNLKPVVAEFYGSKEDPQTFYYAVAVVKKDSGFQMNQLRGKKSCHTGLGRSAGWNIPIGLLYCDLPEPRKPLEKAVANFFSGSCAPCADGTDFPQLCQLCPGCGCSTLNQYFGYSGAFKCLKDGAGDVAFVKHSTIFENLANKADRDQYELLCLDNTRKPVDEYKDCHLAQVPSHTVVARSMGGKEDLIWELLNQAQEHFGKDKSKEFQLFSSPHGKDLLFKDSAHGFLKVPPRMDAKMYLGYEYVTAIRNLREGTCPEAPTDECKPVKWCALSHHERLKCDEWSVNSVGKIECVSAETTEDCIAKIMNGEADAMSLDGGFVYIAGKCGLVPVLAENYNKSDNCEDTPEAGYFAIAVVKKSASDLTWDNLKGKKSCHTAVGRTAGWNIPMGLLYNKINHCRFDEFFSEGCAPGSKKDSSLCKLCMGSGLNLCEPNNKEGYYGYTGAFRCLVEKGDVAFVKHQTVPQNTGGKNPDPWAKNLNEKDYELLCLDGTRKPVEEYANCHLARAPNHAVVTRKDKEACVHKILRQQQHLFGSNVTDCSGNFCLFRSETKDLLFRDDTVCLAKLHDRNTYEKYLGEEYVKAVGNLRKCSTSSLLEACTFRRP

Molecule	minimum inhibition concentration of hemagglutination (glycoproteins; inhibitor: Asialofetuin)	minimum inhibition concentration of hemagglutination (glycoproteins; inhibitor: Asialomucin (pig))	minimum inhibition concentration of hemagglutination (glycoproteins; [4])	minimum inhibition concentration of hemagglutination (glycoproteins; inhibitor: Casein)	minimum inhibition concentration of hemagglutination (glycoproteins; inhibitor: Fetuin)	minimum inhibition concentration of hemagglutination (glycoproteins; [5])	minimum inhibition concentration of hemagglutination (glycoproteins; [6])	minimum inhibition concentration of hemagglutination (glycoproteins; inhibitor: Lactoferrin)	minimum inhibition concentration of hemagglutination (glycoproteins; inhibitor: Mucin (bovine))	minimum inhibition concentration of hemagglutination (glycoproteins; inhibitor: Mucin (pig))	minimum inhibition concentration of hemagglutination (glycoproteins; inhibitor: Ribonuclease)	minimum inhibition concentration of hemagglutination (glycoproteins; inhibitor: Thyroglobulin)	minimum inhibition concentration of hemagglutination (glycoproteins; inhibitor: Transferrin)	minimum inhibition concentration of hemagglutination (glycoproteins; [7])	interaction strength (relative value) by ELISA (Transferrin (human))	interaction strength (relative value) by ELISA [1]	interaction strength (relative value) by ELISA (Mucin (pig))	interaction strength (relative value) by ELISA (Thyroglobulin (pig))	interaction strength (relative value) by ELISA (Invertase (yeast))	interaction strength (relative value) by ELISA [2]	also measured
Stropharia rugosoannulata lectin [SRL, novel L-fucose α1→6 specific lectin purified from the mushroom Stropharia rugosoannulata]	>250 μl/ml	>250 μl/ml	>250 μl/ml	>250 μl/ml	>250 μl/ml	>250 μl/ml	>250 μl/ml	>250 μl/ml	>250 μl/ml	>250 μl/ml	>250 μl/ml	250 μl/ml	>250 μl/ml	>250 μl/ml	X (Relative values of 10 or less)	X (Relative values of 10 or less)	X (Relative values of 10 or less)	⊚ (Relative values of 120 to 80)	X (Relative values of 10 or less)	◯ (Relative values of 80 to 50)	interaction strength (relative value) by ELISA (Mucin (bovine)): X (Relative values of 10 or less); interaction strength (relative value) by ELISA [3]: X (Relative values of 10 or less)
Aspergillus oryzae lectin [AOL, reference compound]	>250 μl/ml	62.5 μl/ml	>250 μl/ml	>250 μl/ml	>250 μl/ml	>250 μl/ml	>250 μl/ml	>250 μl/ml	>250 μl/ml	62.5 μl/ml	>250 μl/ml	>250 μl/ml	>250 μl/ml	>250 μl/ml	X (Relative values of 10 or less)	Δ (Relative values of 50 to 10)	⊚ (Relative values of 120 to 80)	⊚ (Relative values of 120 to 80)	X (Relative values of 10 or less)	Δ (Relative values of 50 to 10)	interaction strength (relative value) by ELISA (Mucin (bovine)): ⊚ (Relative values of 120 to 80); interaction strength (relative value) by ELISA [3]: X (Relative values of 10 or less)
B1	>250 μl/ml	>250 μl/ml	>250 μl/ml	>250 μl/ml	>250 μl/ml	>250 μl/ml	>250 μl/ml	>250 μl/ml	>250 μl/ml	>250 μl/ml	>250 μl/ml	62.5 μl/ml	>250 μl/ml	>250 μl/ml							

Source: patent US8461305B2, “L-fucose α1→6 specific lectin” (J-Oil Mills, Inc., priority 2008, dated 2013)
